# Biological target: T1, MnSOD47 (Bacillus sp. MHS47, UniProt E9LK91)
# T1 construct: gene sodA
# Assay: xanthine oxidase/hypoxanthine-tetrazolium SOD assay, […] nm
# Type: biochemical
# Conditions: superoxide generated in situ by xanthine oxidase/hypoxanthine; indirect read-out
# T1 sequence (E9LK91 1-203 limits assumed): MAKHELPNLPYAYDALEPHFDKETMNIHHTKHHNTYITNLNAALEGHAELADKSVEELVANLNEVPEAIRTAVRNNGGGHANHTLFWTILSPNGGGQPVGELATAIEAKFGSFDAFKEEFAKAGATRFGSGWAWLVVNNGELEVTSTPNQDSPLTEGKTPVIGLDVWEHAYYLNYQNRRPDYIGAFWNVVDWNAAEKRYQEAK
compound,measurement,value
[O]O [superoxide radical],"xanthine oxidase/hypoxanthine-tetrazolium SOD assay, 450 nm",coupled to a tetrazolium salt to detect the reduction in superoxide radicals
